Results taken from paper PMC4486471 (Nature communications, 2014).

How the values were obtained:
[1] = system: rheumatoid arthritis model; details: cited from earlier work
myeloma tumor = details: cited from earlier work
murine IRE1α [2] = target: T1, murine IRE1α (Mus musculus, UniProt Q9EQY0, N772Y); assay: biochemical; details: IC50 IRE1α RNase activity, naphthol analogue series, average n=4 +/- s.d.
yeast IRE1 [3] = target: T2, yeast IRE1 (Saccharomyces cerevisiae, UniProt P32361, DEL869-892); assay: IRE1 RNase activity, real time fluorescence readout assay; assay type: biochemical; details: RNase inhibition
T2 sequence (P32361 with tags, fused parts or gaps DEL869-892): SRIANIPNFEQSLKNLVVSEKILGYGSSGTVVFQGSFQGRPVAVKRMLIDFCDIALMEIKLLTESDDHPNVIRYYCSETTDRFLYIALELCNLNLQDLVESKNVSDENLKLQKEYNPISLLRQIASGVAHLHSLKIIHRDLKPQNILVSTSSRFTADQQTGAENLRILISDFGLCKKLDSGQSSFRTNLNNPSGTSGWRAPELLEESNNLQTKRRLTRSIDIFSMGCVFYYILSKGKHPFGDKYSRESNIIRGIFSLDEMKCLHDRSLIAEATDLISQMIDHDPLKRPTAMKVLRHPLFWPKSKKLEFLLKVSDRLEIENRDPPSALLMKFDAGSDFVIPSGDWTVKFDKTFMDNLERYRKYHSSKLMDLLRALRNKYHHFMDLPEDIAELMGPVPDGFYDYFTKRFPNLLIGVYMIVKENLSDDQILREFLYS

[4] = target: IRE1α auto-kinase activity (Mus musculus, UniProt Q9EQY0, N772Y); assay: IRE1α auto-kinase; assay type: biochemical, murine
Chain of IRE1α auto-kinase activity (Q9EQY0 499-977 N772Y): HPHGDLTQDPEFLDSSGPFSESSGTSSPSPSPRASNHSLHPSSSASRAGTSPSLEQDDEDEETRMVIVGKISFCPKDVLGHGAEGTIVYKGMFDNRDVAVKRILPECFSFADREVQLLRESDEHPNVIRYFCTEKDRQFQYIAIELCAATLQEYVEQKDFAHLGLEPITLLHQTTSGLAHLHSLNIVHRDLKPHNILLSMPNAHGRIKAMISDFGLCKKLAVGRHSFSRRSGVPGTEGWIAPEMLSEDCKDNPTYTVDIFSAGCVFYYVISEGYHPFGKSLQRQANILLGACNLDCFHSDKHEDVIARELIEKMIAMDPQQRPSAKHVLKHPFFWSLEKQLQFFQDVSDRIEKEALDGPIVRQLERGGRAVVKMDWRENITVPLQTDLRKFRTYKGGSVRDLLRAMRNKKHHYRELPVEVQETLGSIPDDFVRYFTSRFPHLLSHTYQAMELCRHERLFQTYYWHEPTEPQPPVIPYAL

[5] = system: XBP1 mRNA splicing (IRE1α); assay: XBP1 mRNA splicing in RPMI 8226 plasmacytoma cells; assay type: cell-based, human
CD59 mRNA (RIDD target) = assay: CD59; assay type: cell-based, human; details: 10 μM
murine IRE1α Phe889Ala = murine IRE1α Phe889Ala (Mus musculus, UniProt Q9EQY0, F889A/N772Y); assay: Direct binding by micro-scale thermophoresis; details: Kd (avg), average
Chain of murine IRE1α Phe889Ala (Q9EQY0 499-977 N772Y/F889A): as the sequence (Q9EQY0 499-977 N772Y) above, with F391A counted along it

murine IRE1α Tyr892Ala = murine IRE1α Tyr892Ala (Mus musculus, UniProt Q9EQY0, N772Y/Y892A); assay: Direct binding by micro-scale thermophoresis; details: Kd (avg), average
Chain of murine IRE1α Tyr892Ala (Q9EQY0 499-977 N772Y/Y892A): as the sequence (Q9EQY0 499-977 N772Y) above, with Y394A counted along it

murine IRE1α Asn906Leu = murine IRE1α Asn906Leu (Mus musculus, UniProt Q9EQY0, N772Y/N906L); assay: Direct binding by micro-scale thermophoresis; details: Kd (avg), average
Chain of murine IRE1α Asn906Leu (Q9EQY0 499-977 N772Y/N906L): as the sequence (Q9EQY0 499-977 N772Y) above, with N408L counted along it

murine IRE1α His910Ala = murine IRE1α His910Ala (Mus musculus, UniProt Q9EQY0, H910A/N772Y); assay: Direct binding by micro-scale thermophoresis; details: Kd (avg), average
Chain of murine IRE1α His910Ala (Q9EQY0 499-977 N772Y/H910A): as the sequence (Q9EQY0 499-977 N772Y) above, with H412A counted along it

murine IRE1α Lys907Ala [6] = target: T3, murine IRE1α Lys907Ala (Mus musculus, UniProt Q9EQY0, K907A/N772Y); assay: Direct binding by micro-scale thermophoresis
T3 sequence (Q9EQY0 499-977 N772Y/K907A): as the sequence (Q9EQY0 499-977 N772Y) above, with K409A counted along it

murine IRE1α Lys907Ala [7] = target: T3, murine IRE1α Lys907Ala; assay: Gel based RNase cleavage assay with dual-hairpin RNA substrate; assay type: biochemical; details: 100 μM IRE1α, 60 μM dual hairpin substrate
[8] = target: murine IRE1α auto-kinase activity (Mus musculus, UniProt Q9EQY0, N772Y); assay: Auto-phosphorylation kinase assay with P32-γ-ATP; assay type: biochemical; details: read-out: IC50 (avg) auto-kinase activity of murine IRE1α; 10 minute time point; n=2
Chain of murine IRE1α auto-kinase activity (Q9EQY0 499-977 N772Y): as the sequence (Q9EQY0 499-977 N772Y) above

murine IRE1α [9] = target: T1, murine IRE1α; assay: Oligomerization status by velocity analytical ultracentrifugation; details: ADP 500 μM, JAK inhibitor I 30 μM
yeast IRE1 [10] = target: T2, yeast IRE1; details: cited from earlier work

T1 sequence (Q9EQY0 499-977 N772Y): as above

For `Cc1cc(=O)oc2c(C=O)c(O)ccc12` [4μ8C], the “XBP1s, inflammatory cytokines and inflammation” value [1] is given as “effective in suppressing”.

For `CN1CCN(C(=O)c2ccc(-c3ccc4c(C=O)c(O)ccc4c3)s2)CC1` [MKC3946, 2-Hydroxy-6-[5-(4-methyl-piperazine-1-carbonyl)-thiophen-2-yl]-naphthalene-1-carbaldehyde], the Myeloma tumor growth (myeloma tumor) is listed as “reduced myeloma tumor growth”, the “Splicing of XBP1 mRNA in tissues and tumors” value (myeloma tumor) is listed as “inhibited the splicing of XBP1 mRNA in tissues and tumors” and the Tolerability in vivo (myeloma tumor) is listed as “readily tolerated with high exposure”.

For `O=Cc1c(O)ccc2ccc(Br)cc12` [MKC3987, 7-Bromo-2-hydroxy-naphthalene-1-carbaldehyde], the IC50 (murine IRE1α [2]) was 0.39 µM.

In the case of `CN1CCN(C(=O)c2ccc(-c3ccc4ccc(O)c(C=O)c4c3)cc2)CC1` [MKC4027, 2-Hydroxy-7-[4-(4-methyl-piperazine-1-carbonyl)-phenyl]-naphthalene-1-carbaldehyde], the IC50 (murine IRE1α [2]) is reported as 5.7 µM.

In the case of `COCCOCCc1c(C)c2cc(OC)c(O)c(C=O)c2oc1=O` [MKC9989, 7-Hydroxy-6-methoxy-3-(2-(2-methoxyethoxy)ethyl)-4-methyl-2-oxo-2H-chromene-8-carbaldehyde], the “Resistance of yeast IRE1 relative to IRE1α” value (yeast IRE1 [3]) is reported as ~ 100 fold, the IC50 [4] is reported as over 10 µM and the “Inhibition of basal and thapsigargin induced splicing of XBP1 mRNA” value ([5]; 10 μM compound, 1 μM thapsigargin, RPMI 8226) is reported as “completely inhibited”. For the same molecule, the EC50 ([5]; Homo sapiens, RPMI-8226, read-out: EC50 (avg) XBP1 splicing) was 0.33 µM, the “CD59 mRNA level” value (CD59 mRNA (RIDD target); administered 2 hour post treatment with thapsigargin) was “moderately stabilized” and the “CD59 mRNA level” value (CD59 mRNA (RIDD target); co-administered with thapsigargin relative to thapsigargin alone) was “markedly stabilized”. For the same molecule, the “CD59 mRNA level” value (CD59 mRNA (RIDD target); non-stressed cells) was “modestly increased”, the Kd (murine IRE1α Phe889Ala) was 10.9 µM and the Kd (murine IRE1α Tyr892Ala) was 10 µM. The Kd (murine IRE1α Asn906Leu) was 8.9 µM, the Kd (murine IRE1α His910Ala) was 5.3 µM and the “Binding to IRE1α Lys907Ala” value (murine IRE1α Lys907Ala [6]) was “abolished detectable binding”. The “Sensitivity of RNase activity to inhibitor” value (murine IRE1α Lys907Ala [7]) was “insensitive”.

In the case of JAK inhibitor I, the IC50 [8] is given as 1.1 µM, the “Effect on concentration dependent oligomerization of IRE1α” value (murine IRE1α [9]) is given as “enhanced” and the “Effect on dimerization/oligomerization of yeast IRE1 and its RNase activity” value (yeast IRE1 [10]) is given as “promoted”.
